Reference: patent US7531554B2, “4-oxoquinoline compound and use thereof as HIV integrase inhibitor” (Japan Tobacco Inc., priority 2004, dated 2009)
Where a name gives a salt, the structure may show the parent alone.

Biological target: T1, HIV integrase (Human immunodeficiency virus type 1 group M subtype B, UniProt P12497, F1332H)
T1 construct: HIV integrase full length gene (J. Virol., 67, 425-437 (1993)) in which phenylalanine at codon 185 was substituted by histidine; made in house; host or cells: Escherichia coli BL21(DE3)
Assay: Determination of enzyme (HIV integrase) inhibitory activity
Format: biochemical
Conditions: recombinant integrase protein (F185H), donor DNA/target DNA, absorbance at 450 nm
Procedure: HIV integrase full length gene (J. Virol., 67, 425-437 (1993)) in which phenylalanine at codon 185 was substituted by histidine, was inserted between the restriction enzyme NdeI and XhoI sites of plasmid pET21a(+) (Novagen), whereby an integrase expression vector pET21a-IN-F185H was constructed.
Escherichia coli recombinant BL21(DE3) transformed with plasmid pET21a-IN-F185H obtained in (i) was shake cultured at 30° C. in a liquid medium containing ampicillin. When the culture reached the logarithmic growth phase, isopropyl-β-D-thiogalactopyranoside was added to promote expression of integrase gene. The culture was continued for 3 hr to promote accumulation of the integrase protein. The recombinant E. coli was collected in pellets by centrifugal separation and preserved at −80° C.
The E. coli was suspended in Lysis buffer (20 mM HEPES (pH 7.5), 5 mM DTT, 10 mM CHAPS, 10% glycerol) containing 1M sodium chloride and subjected to repeat pressurization and depressurization for rupture, and centrifugal separation at 4° C., 40,000×g, 60 min to recover a water-soluble fraction (supernatant). This was diluted 10-fold with Lysis buffer free of sodium chloride, mixed with SP-Sepharose (Pharmacia Corporation) and stirred at 4° C. for 60 min to allow adsorption of integrase protein to the resin. The resin was washed with Lysis buffer containing 100 mM sodium chloride and the integrase protein was eluted with Lysis buffer containing 1M sodium chloride.
The eluted integrase protein solution was subjected to a Superdex 75 (Pharmacia Corporation) column for gel filtration. The protein was eluted with Lysis buffer containing 1M sodium chloride.
The obtained fractions of the integrase protein were collected and preserved at −80° C.
The following DNA synthesized by Greiner was dissolved in TE buffer (10 mM Tris-hydrochloric acid (pH 8.0), 1 mM EDTA) and mixed with donor DNA, target DNA, and each complementary strand (+ and − strands) to 1 μM. The mixture was heated at 95° C. for 5 min, 80° C. for 10 min, 70° C. for 10 min, 60° C. for 10 min, 50° C. for 10 min and 40° C. for 10 min and kept at 25° C. to give a double stranded DNA, which was used for the test. Donor DNA ([…] attached to the 5′ terminal) Donor + strand: 5′-Biotin-ACCCTTTTAGTCAGTGTGGAAAATCTCTAGCA-3′ (SEQ ID NO:1) Donor − strand: 5′-ACTGCTAGAGATTTTCCACACTGACTAAAAG-3′ (SEQ ID NO:2) Target DNA (+, − strands both having digoxigenin added at 3′ terminal) Target + strand: 5′-TGACCAAGGGCTAATTCACT-Dig-3′ (SEQ ID NO:3) Target − strand: 5′-AGTGAATTAGCCCTTGGTCA-Dig-3′ (SEQ ID NO:4)
The donor DNA was diluted with TE buffer to 10 nM, of which 50 μl was added to each well of streptavidin-coated microtiter plate (Roche) and allowed to adsorb at 37° C. for 60 min. The plate was washed with phosphate buffer (Dulbecco's PBS, Sanko Junyaku Co., Ltd.) containing 0.1% Tween 20 and phosphate buffer. Then, an enzyme reaction mixture (70 μl), a test substance (10 μl) diluted with the reaction mixture and 100 μg/ml integrase protein (10 μl) were added to each well and reacted at 37° C. for 60 min.
Then, 50 nM target DNA (10 μl) was added, reacted at 37° C. for 10 min and washed with phosphate buffer containing 0.1% Tween 20 to stop the reaction.
Then, 100 mU/ml peroxidase labeled anti-digoxigenin antibody solution (Roche, 100 μl) was added, and the mixture was reacted at 37° C. for 60 min, followed by washing with phosphate buffer containing 0.1% Tween 20.
A peroxidase color solution (Bio Rad, 100 μl) was added and allowed to react at room temperature for 4 min. The color reaction was stopped by adding 1N sulfuric acid (100 μl). The absorbance at 450 nm was measured.
The HIV integrase inhibitory activity (IC50) of the compound of the present invention was calculated from the inhibition rate according to the following formula. […]

CC(C)[C@@H](CO)n1cc(C(=O)O)c(=O)c2cc(Cc3cccc(Cl)c3F)c(N3CCNC(=O)C3)cc21 [Example 4-35, 6-(3-chloro-2-fluorobenzyl)-1-((1S)-1-(hydroxymethyl)-2-methylpropyl)-4-oxo-7-(3-oxopiperazin-1-yl)-1,4-dihydroquinoline-3-carboxylic acid]
IC50: 6 nM

CC(C)[C@@H](CO)n1cc(C(=O)O)c(=O)c2cc(Cc3cccc(Cl)c3F)c(OCc3ccc(S(N)(=O)=O)cc3)cc21 [Example 4-63, 7-(4-(aminosulfonyl)benzyloxy)-6-(3-chloro-2-fluorobenzyl)-1-((1S)-1-(hydroxymethyl)-2-methylpropyl)-4-oxo-1,4-dihydroquinoline-3-carboxylic acid]
IC50: 3.6 nM

CC(C)[C@@H](CO)n1cc(C(=O)O)c(=O)c2cc(Cc3cccc(Cl)c3F)c(OCc3ccccn3)cc21 [Example 4-59, 6-(3-chloro-2-fluorobenzyl)-1-((1S)-1-(hydroxymethyl)-2-methylpropyl)-4-oxo-7-(pyridin-2-ylmethoxy)-1,4-dihydroquinoline-3-carboxylic acid]
IC50: 3.6 nM

CC(C)[C@@H](CO)n1cc(C(=O)O)c(=O)c2cc(Cc3cccc(Cl)c3F)c(OC3CCN(S(C)(=O)=O)CC3)cc21 [Example 4-64, 6-(3-chloro-2-fluorobenzyl)-1-((1S)-1-(hydroxymethyl)-2-methylpropyl)-7-(1-mesylpiperidin-4-yloxy)-4-oxo-1,4-dihydroquinoline-3-carboxylic acid]
IC50: 6.6 nM

CC(C)[C@@H](CO)n1cc(C(=O)O)c(=O)c2cc(Cc3cccc(Cl)c3F)c(OCCO)cc21 [Example 7-3, 6-(3-chloro-2-fluorobenzyl)-7-(2-hydroxyethoxy)-1-((1S)-1-(hydroxymethyl)-2-methylpropyl)-4-oxo-1,4-dihydroquinoline-3-carboxylic acid]
IC50: 3.5 nM

CCOC(=O)N1CCC(Nc2cc3c(cc2Cc2cccc(Cl)c2F)c(=O)c(C(=O)O)cn3[C@H](CO)C(C)C)CC1 [Example 4-40, 6-(3-chloro-2-fluorobenzyl)-7-(1-(ethoxycarbonyl)piperidin-4-ylamino)-1-((1S)-1-(hydroxymethyl)-2-methylpropyl)-4-oxo-1,4-dihydroquinoline-3-carboxylic acid]
IC50: 6.8 nM

CC(C)[C@@H](CO)n1cc(C(=O)O)c(=O)c2cc(Cc3cccc(Cl)c3F)c(Oc3cccnc3)cc21 [Example 4-20, 6-(3-chloro-2-fluorobenzyl)-1-((1S)-1-(hydroxymethyl)-2-methylpropyl)-4-oxo-7-(pyridin-3-yloxy)-1,4-dihydroquinoline-3-carboxylic acid hydrochloride]
IC50: 9.3 nM

CSCC[C@@H](CO)n1cc(C(=O)O)c(=O)c2cc(Cc3cccc(Cl)c3F)ccc21 [Example 2-16, 6-(3-chloro-2-fluorobenzyl)-1-((1S)-1-(hydroxymethyl)-3-(methylthio)propyl)-4-oxo-1,4-dihydroquinoline-3-carboxylic acid]
IC50: 5.8 nM

CC(C)[C@@H](CO)n1cc(C(=O)O)c(=O)c2cc(Cc3cccc(Cl)c3F)c(N3CCOCC3)cc21 [Example 4-9, 6-(3-chloro-2-fluorobenzyl)-1-((1S)-1-(hydroxymethyl)-2-methylpropyl)-7-(morpholin-4-yl)-4-oxo-1,4-dihydroquinoline-3-carboxylic acid]
IC50: 6 nM

CC(C)[C@@H](CO)n1cc(C(=O)O)c(=O)c2cc(Cc3cccc(Cl)c3F)c(OCCCN(C)C)cc21 [Example 4-6, 6-(3-chloro-2-fluorobenzyl)-7-(3-(dimethylamino)propoxy)-1-((1S)-1-(hydroxymethyl)-2-methylpropyl)-4-oxo-1,4-dihydroquinoline-3-carboxylic acid]
IC50: 6.3 nM

COCCOc1cc(Cc2cccc(Cl)c2F)cc2c(=O)c(C(=O)O)cn([C@H](CO)C(C)C)c12 [Example 3-4, 6-(3-chloro-2-fluorobenzyl)-1-((1S)-1-(hydroxymethyl)-2-methylpropyl)-8-(2-methoxyethoxy)-4-oxo-1,4-dihydroquinoline-3-carboxylic acid]
IC50: 4.5 nM

CC(C)[C@@H](CO)n1cc(C(=O)O)c(=O)c2cc(Cc3cccc(Cl)c3F)c(N3CC[C@H](N)C3)cc21 [Example 4-38, 7-((3S)-3-aminopyrrolidin-1-yl)-6-(3-chloro-2-fluorobenzyl)-1-((1S)-1-(hydroxymethyl)-2-methylpropyl)-4-oxo-1,4-dihydroquinoline-3-carboxylic acid]
IC50: 12 nM

CC(C)[C@@H](CO)n1cc(C(=O)O)c(=O)c2cc(Cc3cccc(Cl)c3F)c(OCCN3CCNCC3)cc21 [Example 4-33, 6-(3-chloro-2-fluorobenzyl)-1-((1S)-1-(hydroxymethyl)-2-methylpropyl)-4-oxo-7-(2-(piperazin-1-yl)ethoxy)-1,4-dihydroquinoline-3-carboxylic acid dihydrochloride]
IC50: 5.7 nM

CC(C)[C@@H](CO)n1cc(C(=O)O)c(=O)c2cc(Cc3cccc(Cl)c3F)c(NC3CCNCC3)cc21 [Example 4-42, 6-(3-chloro-2-fluorobenzyl)-1-((1S)-1-(hydroxymethyl)-2-methylpropyl)-4-oxo-7-(piperidin-4-ylamino)-1,4-dihydroquinoline-3-carboxylic acid]
IC50: 7.9 nM

COc1cc2c(cc1Cc1cccc(Cl)c1F)c(=O)c(C(=O)O)cn2[C@H](CO)CCS(C)(=O)=O [Example 2-13, 6-(3-chloro-2-fluorobenzyl)-1-((1S)-1-(hydroxymethyl)-3-mesylpropyl)-7-methoxy-4-oxo-1,4-dihydroquinoline-3-carboxylic acid]
IC50: 6.9 nM

CC(C)[C@@H](CO)n1cc(C(=O)O)c(=O)c2cc(Cc3cccc(Cl)c3F)c(OCCCN)cc21 [Example 4-19, 7-(3-aminopropoxy)-6-(3-chloro-2-fluorobenzyl)-1-((1S)-1-(hydroxymethyl)-2-methylpropyl)-4-oxo-1,4-dihydroquinoline-3-carboxylic acid hydrochloride]
IC50: 4.6 nM

COc1cc2c(cc1Cc1c(F)cccc1C(F)(F)F)c(=O)c(C(=O)O)cn2[C@H](CO)C(C)C [Example 1-12, 6-(2-fluoro-6-(trifluoromethyl)benzyl)-1-((1S)-1-(hydroxymethyl)-2-methylpropyl)-7-methoxy-4-oxo-1,4-dihydroquinoline-3-carboxylic acid]
IC50: 260 nM

COc1cc2c(cc1Cc1cccc(Cl)c1F)c(=O)c(C(=O)O)cn2[C@H](CO)CSC [Example 2-3, 6-(3-chloro-2-fluorobenzyl)-1-((1R)-1-(hydroxymethyl)-2-(methylthio)ethyl)-7-methoxy-4-oxo-1,4-dihydroquinoline-3-carboxylic acid]
IC50: 6.8 nM

COc1cc2c(cc1Cc1ccc(F)cc1C(F)(F)F)c(=O)c(C(=O)O)cn2[C@H](CO)C(C)C [Example 1-10, 6-(4-fluoro-2-(trifluoromethyl)benzyl)-1-((1S)-1-(hydroxymethyl)-2-methylpropyl)-7-methoxy-4-oxo-1,4-dihydroquinoline-3-carboxylic acid]
IC50: 280 nM

COCCCCOc1cc(Cc2cccc(Cl)c2F)cc2c(=O)c(C(=O)O)cn([C@H](CO)C(C)C)c12 [Example 3-8, 6-(3-chloro-2-fluorobenzyl)-1-((1S)-1-(hydroxymethyl)-2-methylpropyl)-8-(4-methoxybutoxy)-4-oxo-1,4-dihydroquinoline-3-carboxylic acid]
IC50: 4 nM
